The source of these data is patent publication US12336981B2, “Compounds and compositions for the inhibition of NAMPT” (Valo Health, Inc., priority 2010, dated 2025).

The target of experiment [1] is T1, NAMPT (Homo sapiens, UniProt P43490).
T1 construct: His tag; host or cells: E. coli
In words: Biochemical inhibition assay: NAMPT enzymatic reaction, NMN quantified by mass spectrometry. To be noted: read-out: Biochem IC50. The method, boiled down:
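Inhibition of E. coli-expressed His-tagged human NAMPT, measured as NMN formation by mass spectrometry after a 30 min room-temperature reaction containing 1 μM NAM, 100 μM PRPP and 2.5 mM ATP.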

Experiment [2] has as its system A2780 cells. In words: In-vitro cell proliferation assay (SRB), A2780 cells. To be noted: Homo sapiens, A2780, 72 h, A2780 cells, 72 hours, read-out: A2780 IC50. Format: cell-based. The method, boiled down: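 SRB read-out: 6% TCA fix 1 h at 4° C., stain, Tris solubilize, A570. Media-only background subtracted; % inhibition from two compound concentrations.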

Read-outs that look alike come from different tables or passages of the source.

T1 sequence (P43490 whole entry): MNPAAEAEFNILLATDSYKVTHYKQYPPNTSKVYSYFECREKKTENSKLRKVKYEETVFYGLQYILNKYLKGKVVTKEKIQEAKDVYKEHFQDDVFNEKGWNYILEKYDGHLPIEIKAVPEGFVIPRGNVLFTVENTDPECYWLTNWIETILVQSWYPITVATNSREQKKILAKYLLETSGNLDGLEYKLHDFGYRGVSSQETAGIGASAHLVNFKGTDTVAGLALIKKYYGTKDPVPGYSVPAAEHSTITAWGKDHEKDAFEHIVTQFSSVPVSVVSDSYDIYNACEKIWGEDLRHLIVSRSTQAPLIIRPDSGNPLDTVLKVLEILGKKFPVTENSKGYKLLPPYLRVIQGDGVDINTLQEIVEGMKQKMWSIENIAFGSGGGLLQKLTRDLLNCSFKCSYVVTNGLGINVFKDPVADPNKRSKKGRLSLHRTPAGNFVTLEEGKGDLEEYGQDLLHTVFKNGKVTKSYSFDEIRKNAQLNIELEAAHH

A word on the IC50: it is the concentration that inhibits the measured activity by half. Turning to `Cc1ccc(S(=O)(=O)c2ccc(CNC(=O)c3cnc4nccn4c3)cc2)cn1` [N-{[4-(6-methylpyridine-3-sulfonyl)phenyl]methyl}imidazo[1,2-a]pyrimidine-6-carboxamide], the IC50 in experiment [1] (NAMPT enzymatic assay) turned out to be 5.9 nM; in experiment [2] (SRB), 55.5 nM.

In the case of `COc1ccc(OC)c(S(=O)(=O)c2ccc(CNC(=O)c3cc4ccncc4o3)cc2)c1OC`, the figures for the IC50 in experiment [1] (NAMPT enzymatic reaction) and in experiment [2] (SRB) were 39.9 nM and 66.7 nM, respectively.

As to `O=C(NCc1ccc(S(=O)(=O)c2cccc(Cl)c2F)cc1)c1cc2ccncc2o1`, the IC50 was 10.9 nM in experiment [1] (NAMPT enzymatic reaction) and 12.8 nM in experiment [2] (SRB).

For the molecule `O=C(NCc1ccc(S(=O)(=O)c2ccc(C(F)(F)F)cn2)cc1)c1cnc2[nH]ncc2c1` [N-({4-[5-(trifluoromethyl)pyridine-2-sulfonyl]phenyl}methyl)-1H-pyrazolo[3,4-b]pyridine-5-carboxamide], the IC50 in experiment [1] (NAMPT enzymatic assay) and in experiment [2] (SRB) was 100 to 1000 nM each time.

For `O=C(NCc1ccc(S(=O)(=O)c2cc(F)cc(Cl)c2)cc1)c1ccc2nccn2c1`, the IC50 in experiment [1] (NAMPT enzymatic reaction) was 3.9 nM; in experiment [2] (SRB) it was 0.3 nM.

With `CCOc1cc(S(=O)(=O)c2ccc(CNC(=O)c3cc4cnccc4[nH]3)cc2)ccc1F`, the results for the IC50 in experiment [1] (NAMPT enzymatic reaction) and in experiment [2] (SRB) were 82.4 nM and 4.4 nM, respectively.

Consider `O=C(NCc1ccc(S(=O)(=O)c2cc(F)ccc2Cl)cc1)c1cc2ccncc2s1`, for which the figures for the IC50 in experiment [1] (NAMPT enzymatic reaction) and in experiment [2] (SRB) were 4.2 nM and 5.7 nM, respectively.

`CCCOc1ccc(S(=O)(=O)c2ccc(CNC(=O)c3cnc4[nH]ncc4c3)cc2)cc1F` [N-({4-[(3-fluoro-4-propoxybenzene)sulfonyl]phenyl}methyl)-1H-pyrazolo[3,4-b]pyridine-5-carboxamide]: the IC50 in experiment [1] (NAMPT enzymatic reaction) turned out to be 11.6 nM; in experiment [2] (SRB), 6.5 nM.

`O=C(NCc1ccc(S(=O)(=O)c2cc(Cl)cc(Cl)c2)cc1)c1ccc2nccn2c1` [N-({4-[(3,5-dichlorobenzene)sulfonyl]phenyl}methyl)imidazo[1,2-a]pyridine-6-carboxamide]: the IC50 in experiment [1] (NAMPT enzymatic reaction) stood at 5.49 nM; in experiment [2] (SRB) it was 1.28 nM.

For `CN(C)Cc1cccc(S(=O)(=O)c2ccc(CNC(=O)c3cnc4nccn4c3)cc2)c1`, the IC50 in experiment [1] (NAMPT enzymatic assay) was determined as 4.4 nM; in experiment [2] (SRB), 66 nM.

With `O=C(NCc1ccc(S(=O)(=O)c2ccc(F)c(F)c2)cc1)c1cnc2[nH]ncc2c1`, the values for the IC50 in experiment [1] (NAMPT enzymatic reaction) and in experiment [2] (SRB) were 54.2 nM and 28.9 nM, respectively.

In the case of `CCOc1ccc(S(=O)(=O)c2ccc(CNC(=O)c3cc4cnccc4[nH]3)cc2)c(C)c1`, the IC50 in experiment [1] (NAMPT enzymatic reaction) amounted to 9.2 nM; in experiment [2] (SRB), 12.6 nM.

On to `O=C(NCc1ccc(S(=O)(=O)c2ccc(Cl)c(F)c2)cc1)c1ccc2nccn2c1` [N-({4-[(4-chloro-3-fluorobenzene)sulfonyl]phenyl}methyl)imidazo[1,2-a]pyridine-6-carboxamide], for which the IC50 amounted to 7.22 nM in experiment [1] (NAMPT enzymatic reaction) and 7.24 nM in experiment [2] (SRB).

With `Cc1ccc(F)cc1S(=O)(=O)c1ccc(CNC(=O)c2cnc3[nH]ncc3c2)cc1` [N-({4-[(5-fluoro-2-methylbenzene)sulfonyl]phenyl}methyl)-1H-pyrazolo[3,4-b]pyridine-5-carboxamide], the results for the IC50 in experiment [1] (NAMPT enzymatic reaction) and in experiment [2] (SRB) were 20.4 nM and 59.7 nM, respectively.

Consider `N#Cc1cccc(S(=O)(=O)c2ccc(CNC(=O)c3cc4ccncc4o3)cc2)c1` [N-({4-[(3-cyanobenzene)sulfonyl]phenyl}methyl)furo[2,3-c]pyridine-2-carboxamide], for which the IC50 amounted to 15.4 nM in experiment [1] (NAMPT enzymatic reaction) and 12.6 nM in experiment [2] (SRB).

For the molecule `CCCCOc1cc(F)ccc1S(=O)(=O)c1ccc(CNC(=O)c2cc3cnccc3[nH]2)cc1`, the IC50 was found to be 31.1 nM in experiment [1] (NAMPT enzymatic reaction) and 5.5 nM in experiment [2] (SRB).

Consider `O=C(NCc1ccc(S(=O)(=O)c2cccc3cccnc23)cc1)c1cc2ccncc2s1` [N-{[4-(quinoline-8-sulfonyl)phenyl]methyl}thieno[2,3-c]pyridine-2-carboxamide], for which the IC50 in experiment [1] (NAMPT enzymatic reaction) amounted to 6 nM; in experiment [2] (SRB assay) it was 2.5 nM.

With `O=C(NCc1ccc(S(=O)(=O)c2cccc(OCCN3CCOCC3)c2)cc1)c1cc2cnccc2[nH]1`, the IC50 in experiment [1] (NAMPT enzymatic assay) was determined as 64.9 nM; in experiment [2] (SRB), 12.6 nM.

`CCNC(=O)c1ccc(S(=O)(=O)c2ccc(CNC(=O)c3cc4ccncc4o3)cc2)cc1`: the IC50 in experiment [1] (NAMPT enzymatic assay) was 4.5 nM; in experiment [2] (SRB) it was 6.7 nM.

In the case of `O=C(NCc1ccc2ncsc2c1)c1ccc(S(=O)(=O)c2cccc(Cl)c2)cc1` [N-(1,3-benzothiazol-6-ylmethyl)-4-[(3-chlorobenzene)sulfonyl]benzamide], the IC50 was 10 nM in experiment [1] (NAMPT enzymatic assay) and > 10000 nM in experiment [2] (SRB).

Regarding `O=C(NCc1ccc(S(=O)(=O)c2ccc(C(F)(F)F)cc2C(F)(F)F)cc1)c1cnc2nccn2c1`, the results for the IC50 in experiment [1] (NAMPT enzymatic assay) and in experiment [2] (SRB) were 18.8 nM and 96.4 nM, respectively.

In the case of `CCCOc1ccc(S(=O)(=O)c2ccc(CNC(=O)c3cc4ccncc4o3)cc2)cc1F`, the IC50 in experiment [1] (NAMPT enzymatic reaction) worked out at 6.8 nM; in experiment [2] (SRB), 11.8 nM.

For `O=C(NCc1ccc(S(=O)(=O)c2cccc(C(=O)NC3CCCC3)c2)cc1)c1cnc2[nH]ncc2c1` [N-[(4-{[3-(cyclopentylcarbamoyl)benzene]sulfonyl}phenyl)methyl]-1H-pyrazolo[3,4-b]pyridine-5-carboxamide], the IC50 in experiment [1] (NAMPT enzymatic assay) worked out at 33.3 nM; in experiment [2] (SRB) it was 33 nM.

With `O=C(NCc1ccc(S(=O)(=O)c2ccccc2)cc1)c1noc(-c2cccnc2)n1` [N-{[4-(benzenesulfonyl)phenyl]methyl}-5-(pyridin-3-yl)-1,2,4-oxadiazole-3-carboxamide], the figures for the IC50 in experiment [1] (NAMPT enzymatic reaction) and in experiment [2] (SRB assay) were 312 nM and > 30000 nM, respectively.

`COc1cc(OC)cc(S(=O)(=O)c2ccc(CNC(=O)c3cc4ccncc4o3)cc2)c1`: the IC50 in experiment [1] (NAMPT enzymatic reaction) came to 2.7 nM; in experiment [2] (SRB), 1.7 nM.

Take `CCOc1ccc(S(=O)(=O)c2ccc(CNC(=O)c3cc4ccncc4o3)cc2)cc1` [N-({4-[(4-ethoxybenzene)sulfonyl]phenyl}methyl)furo[2,3-c]pyridine-2-carboxamide]: the IC50 in experiment [1] (NAMPT enzymatic reaction) came out at 2.5 nM; in experiment [2] (SRB) it was 7.1 nM.

For `COc1cccc(NS(=O)(=O)c2ccc(CNC(=O)c3cc4cnccc4[nH]3)cc2)c1C` [N-({4-[(3-methoxy-2-methylphenyl)sulfamoyl]phenyl}methyl)-1H-pyrrolo[3,2-c]pyridine-2-carboxamide], the IC50 worked out at 30 nM in experiment [1] (NAMPT enzymatic reaction) and 6 nM in experiment [2] (SRB assay).

Turning to `COc1ccc(S(=O)(=O)c2ccc(CNC(=O)c3cnc4nccn4c3)cc2)cc1F` [N-({4-[(3-fluoro-4-methoxybenzene)sulfonyl]phenyl}methyl)imidazo[1,2-a]pyrimidine-6-carboxamide], the IC50 in experiment [1] (NAMPT enzymatic reaction) came out at 1.7 nM; in experiment [2] (SRB), 8.3 nM.

Take `O=C(NCc1ccc(S(=O)(=O)c2cncc3ccccc23)cc1)c1cc2ccncc2s1` [N-{[4-(isoquinoline-4-sulfonyl)phenyl]methyl}thieno[2,3-c]pyridine-2-carboxamide]: the IC50 in experiment [1] (NAMPT enzymatic assay) was found to be 6.7 nM; in experiment [1] (NAMPT enzymatic reaction), 3 nM; in experiment [2] (SRB assay) it was 0.7 nM; in experiment [2] (SRB), 0.8 nM.

As for `O=C(NCc1ccc(S(=O)(=O)c2cc(Cl)ccc2O)cc1)c1ccc2nccn2c1` [N-({4-[(5-chloro-2-hydroxybenzene)sulfonyl]phenyl}methyl)imidazo[1,2-a]pyridine-6-carboxamide], the IC50 in experiment [1] (NAMPT enzymatic reaction) stood at 14 nM; in experiment [2] (SRB) it was 168 nM.

In the case of `COc1cc(OC)cc(S(=O)(=O)c2ccc(CNC(=O)c3cnc4nccn4c3)cc2)c1` [N-({4-[(3,5-dimethoxybenzene)sulfonyl]phenyl}methyl)imidazo[1,2-a]pyrimidine-6-carboxamide], the values for the IC50 in experiment [1] (NAMPT enzymatic reaction) and in experiment [2] (SRB) were 2.4 nM and 1.6 nM, respectively.

Turning to `O=C(NCc1ccc(S(=O)(=O)c2cccc(C(=O)NC3CCCC3)c2)cc1)c1ccc2nccn2c1`, the IC50 in experiment [1] (NAMPT enzymatic assay) is 10.3 nM; in experiment [2] (SRB), 16.2 nM.

As for `O=C(NCc1ccc(S(=O)(=O)c2cccc(N3CCCC3)c2)cc1)c1cc2ccncc2s1`, the figures for the IC50 in experiment [1] (NAMPT enzymatic assay) and in experiment [2] (SRB) were 1.9 nM and 2.5 nM, respectively.

For `O=C(NCc1ccc(S(=O)(=O)c2cccc(OC(F)(F)F)c2)cc1)c1cc2ccncc2o1`, the IC50 amounted to 3.4 nM in experiment [1] (NAMPT enzymatic assay) and 6.7 nM in experiment [2] (SRB).

`CCOc1cc(Cl)ccc1S(=O)(=O)c1ccc(CNC(=O)c2cc3cnccc3[nH]2)cc1`: the IC50 in experiment [1] (NAMPT enzymatic reaction) was 11.2 nM; in experiment [2] (SRB), 0.4 nM.

Regarding `O=C(NCc1ccc(S(=O)(=O)c2cnc3ccccc3c2)cc1)c1cnc2nccn2c1` [N-{[4-(quinoline-3-sulfonyl)phenyl]methyl}imidazo[1,2-a]pyrimidine-6-carboxamide], the IC50 in experiment [1] (NAMPT enzymatic assay) stood at 2.5 nM; in experiment [2] (SRB) it was 3.6 nM.

On to `Cc1ccc(S(=O)(=O)c2ccc(CNC(=O)c3cc4cnccc4[nH]3)cc2)s1` [N-{[4-(5-methylthiophene-2-sulfonyl)phenyl]methyl}-1H-pyrrolo[3,2-c]pyridine-2-carboxamide], for which the IC50 came out at 7 nM in experiment [1] (NAMPT enzymatic reaction) and 13 nM in experiment [2] (SRB assay).

As to `Cc1cc(-n2cccn2)ccc1S(=O)(=O)c1ccc(CNC(=O)c2cc3ccncc3o2)cc1`, the half-maximal inhibitory concentration (IC50) came out at 6.2 nM in experiment [1] (NAMPT enzymatic assay) and 6 nM in experiment [2] (SRB).

Take `Cn1cc2ccc(S(=O)(=O)c3ccc(CNC(=O)c4cc5ccncc5s4)cc3)cc2n1` [N-{[4-(2-methyl-2H-indazole-6-sulfonyl)phenyl]methyl}thieno[2,3-c]pyridine-2-carboxamide]: the IC50 in experiment [1] (NAMPT enzymatic assay) was 1.4 nM; in experiment [2] (SRB), 1.5 nM.

As for `O=C(NCc1ccc(S(=O)(=O)c2cccnc2)cc1)c1cnc2nccn2c1` [N-{[4-(pyridine-3-sulfonyl)phenyl]methyl}imidazo[1,2-a]pyrimidine-6-carboxamide], the IC50 in experiment [1] (NAMPT enzymatic assay) was 5.9 nM; in experiment [2] (SRB) it was 100 to 1000 nM.

Turning to `COc1cncc(S(=O)(=O)c2ccc(CNC(=O)c3cnc4[nH]ncc4c3)cc2)c1` [N-{[4-(5-methoxypyridine-3-sulfonyl)phenyl]methyl}-1H-pyrazolo[3,4-b]pyridine-5-carboxamide], the IC50 was found to be 41.4 nM in experiment [1] (NAMPT enzymatic assay) and 16.7 nM in experiment [2] (SRB).
